We go through twelve compounds from ChEMBL document CHEMBL1201862, “PubChem BioAssay data set” (2004).

Test systems include COLO 205; HCT-15; HL-60; KM12; LOX IMVI; M14; Malme-3M; OVCAR-8; RXF 393; SF-295; SK-OV-3; SN12C; SW-620; TK-10; ACHN; NCI-H522; OVCAR-3; SF-539; A498.
Holding throughout (assay): NCI tumour cell line growth inhibition, 48 h

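How tested: cells in 96-well plates exposed to compound for 48 hours at five concentrations. Here, GI50 denotes the concentration required for 50% inhibition of growth.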 Activity calls are given as the source filed them. Cut-off read from the data, not from the text of the source: active = GI50 up to about 1.1 µM and inactive = higher. Where only a bound is given, the exact number is not on record here.

Turning to `COc1ccc2[nH]c3c([N+](=O)[O-])ccc(NCCN(C)C)c3/c(=N/CCN(C)C)c2c1`, the GI50 is 2.01 µM (inactive) in the assay on COLO 205; 1.31 µM in the assay on HCT-15; 1.31 µM (inactive) with HL-60; 1.26 µM (inactive) in the assay with KM12; 1.62 µM (inactive) with LOX IMVI; > 10 µM (inactive) in the assay with M14. Besides, the GI50 was 2.58 µM (inactive) with Malme-3M; 0.634 µM (active) with OVCAR-8; 1.03 µM (active) in the assay on RXF 393; 1.58 µM (inactive) with SF-295; 2.85 µM (inactive) in the assay on SK-OV-3; 1.37 µM (inactive) in the assay on SN12C. Further, the GI50 in the assay with SW-620 is 1.04 µM (active); in the assay with TK-10 it was 3.13 µM (inactive).
As for `CC(C)(C)C(C#N)(C#N)c1ccc(C(C#N)(C#N)C(C)(C)C)nn1`, the GI50 in the assay with ACHN was 82 µM (inactive); in the assay with COLO 205, > 100 µM (inactive); with HCT-15 it was over 100 µM; with HL-60, > 100 µM (inactive); in the assay with KM12, > 100 µM (inactive); with LOX IMVI, > 100 µM (inactive). For the same compound, the GI50 was > 100 µM (inactive) in the assay on M14; > 100 µM (inactive) with Malme-3M; > 100 µM (inactive) with NCI-H522; > 100 µM (inactive) in the assay with OVCAR-3; > 100 µM (inactive) with OVCAR-8; 43.3 µM (inactive) in the assay with RXF 393. In addition, the GI50 in the assay on SF-295 is > 100 µM (inactive); in the assay on SF-539 it was > 100 µM (inactive); in the assay with SK-OV-3, 41.3 µM (inactive); in the assay on SN12C, > 100 µM (inactive); with SW-620, > 100 µM (inactive); in the assay with TK-10, > 100 µM (inactive).
In the case of `Cc1ccc(C(c2c(O)c3ccccc3n(-c3ccccc3)c2=O)c2c(O)c3ccccc3n(-c3ccccc3)c2=O)cc1`, the GI50 was 89.3 µM (inactive) with ACHN; > 100 µM (inactive) in the assay on COLO 205; over 100 µM with HCT-15; > 100 µM (inactive) with KM12; > 100 µM (inactive) with LOX IMVI; > 100 µM (inactive) with Malme-3M. Moreover, the GI50 in the assay on NCI-H522 is > 100 µM (inactive); with OVCAR-3, > 100 µM (inactive); with RXF 393, 53.2 µM (inactive); with SF-539, > 100 µM (inactive); in the assay on SN12C, > 100 µM (inactive); in the assay with SW-620, > 100 µM (inactive). Further, in the assay with TK-10, the GI50 is > 100 µM (inactive).
Regarding `CN(C(=O)c1ccc(Cl)cc1)C(=S)N1CCN(c2ccccn2)CC1`, the GI50 with ACHN was > 100 µM (inactive); in the assay with COLO 205, > 100 µM (inactive); in the assay with HCT-15 it was over 100 µM; in the assay with HL-60, > 100 µM (inactive); in the assay with KM12, > 100 µM (inactive); with LOX IMVI it was > 100 µM (inactive). Also, the GI50 with M14, in the assay with Malme-3M, in the assay on NCI-H522, with OVCAR-3, in the assay on OVCAR-8 and in the assay with RXF 393 was > 100 µM (inactive) each time. The GI50 in the assay with SF-295, with SF-539, in the assay with SK-OV-3, in the assay with SN12C, in the assay on SW-620 and in the assay on TK-10 was > 100 µM (inactive) each time.
As for `Cn1c2ccccc2c2cc(-c3ccccc3)c3c(c21)C(=O)c1ccccc1C3=O`, the GI50 is > 100 µM (inactive) in the assay with A498; 31.5 µM (inactive) in the assay with COLO 205; 9.35 µM (inactive) with HL-60; 21.5 µM (inactive) in the assay with KM12; 14.3 µM (inactive) with M14; 22.3 µM (inactive) with Malme-3M. Also, the GI50 was 15.2 µM (inactive) in the assay on NCI-H522; 11.9 µM (inactive) in the assay with OVCAR-3; 18.2 µM (inactive) with OVCAR-8; 21.5 µM (inactive) with SF-295; 22.9 µM (inactive) in the assay with SF-539; 38.3 µM (inactive) in the assay with SK-OV-3. For the same compound, the figures for the GI50 in the assay with SN12C, in the assay on SW-620 and with TK-10 were 28.6 µM (inactive), 18.8 µM (inactive) and 48.3 µM (inactive), respectively.
With `COc1ccccc1NC(=O)CC(=O)N/N=C/c1ccc(N(CCC#N)S(=O)(=O)c2ccccc2)cc1`, the GI50 in the assay with ACHN is > 100 µM (inactive); with COLO 205, > 100 µM (inactive); in the assay on HCT-15, over 100 µM; with HL-60, > 100 µM (inactive); in the assay with KM12 it was > 100 µM (inactive); with LOX IMVI it was > 100 µM (inactive). In addition, the GI50 with M14, in the assay with Malme-3M, with NCI-H522, with OVCAR-3, in the assay on OVCAR-8 and in the assay on SF-295 was > 100 µM (inactive) throughout. The GI50 in the assay on SW-620 and in the assay on TK-10 was > 100 µM (inactive) each time.
With `Cc1ccc([N+](=O)[O-])cc1NC(=O)C(=O)Cc1nc2ccc(C(=O)c3ccccc3)cc2nc1O`, the GI50 in the assay on ACHN was > 100 µM (inactive); in the assay with COLO 205, > 100 µM (inactive); in the assay on HCT-15, over 100 µM; in the assay with HL-60 it was > 100 µM (inactive); with KM12, 93.3 µM (inactive); with LOX IMVI it was > 100 µM (inactive). For the same compound, the GI50 in the assay with M14, in the assay with Malme-3M, in the assay on NCI-H522, in the assay with OVCAR-3, with OVCAR-8 and with RXF 393 was > 100 µM (inactive) throughout. For the same compound, the GI50 with SF-295, in the assay on SF-539, in the assay with SK-OV-3, with SN12C, with SW-620 and in the assay with TK-10 was > 100 µM (inactive) in each case.
Consider `COc1ccc(CNc2nc3c(NC(C)=O)cc(C(F)(F)F)cc3nc2-c2ccccc2)cc1OC`, for which the GI50 with A498 was > 100 µM (inactive); with COLO 205, > 100 µM (inactive); with HCT-15, over 100 µM; in the assay with HL-60, > 100 µM (inactive); in the assay with KM12, > 100 µM (inactive); in the assay with LOX IMVI it was > 100 µM (inactive). The GI50 was 42.8 µM (inactive) with M14; 95.3 µM (inactive) with Malme-3M; 2.69 µM (inactive) with NCI-H522; 93.1 µM (inactive) in the assay with OVCAR-3; 56.8 µM (inactive) in the assay on OVCAR-8; 50 µM (inactive) with SF-295. The GI50 in the assay with SF-539 was 25.2 µM (inactive); in the assay on SK-OV-3, 40.7 µM (inactive); with SN12C it was > 100 µM (inactive); with SW-620 it was 77.3 µM (inactive); in the assay with TK-10, 32.1 µM (inactive).
For the compound `COC(=O)C1C(/C=C/c2ccoc2)ON2CCC[C@@H]12` (stereo partly drawn), the GI50 in the assay on ACHN is 67.8 µM (inactive); in the assay on COLO 205, > 100 µM (inactive); in the assay with HL-60 it was > 100 µM (inactive); in the assay on KM12, > 100 µM (inactive); in the assay on LOX IMVI it was > 100 µM (inactive); in the assay on M14 it was > 100 µM (inactive). Further, the GI50 in the assay with Malme-3M was 33.6 µM (inactive); in the assay with NCI-H522, > 100 µM (inactive); with OVCAR-3 it was > 100 µM (inactive); in the assay on OVCAR-8 it was > 100 µM (inactive); in the assay with RXF 393 it was 47.8 µM (inactive); in the assay with SF-295 it was > 100 µM (inactive). Further, the GI50 in the assay with SF-539, in the assay with SN12C, in the assay on SW-620 and with TK-10 was > 100 µM (inactive) throughout.
As for `COc1ccc2c(c1OC)C(=O)c1cnccc1C2=O`, the GI50 was > 100 µM (inactive) with ACHN; > 100 µM (inactive) in the assay with COLO 205; over 100 µM in the assay with HCT-15; > 100 µM (inactive) in the assay on HL-60; > 100 µM (inactive) with KM12; > 100 µM (inactive) in the assay on LOX IMVI. Moreover, the GI50 with M14 is > 100 µM (inactive); in the assay with Malme-3M it was > 100 µM (inactive); in the assay on NCI-H522 it was > 100 µM (inactive); with OVCAR-3, > 100 µM (inactive); in the assay with OVCAR-8 it was > 100 µM (inactive); in the assay on RXF 393 it was 24.9 µM (inactive). The GI50 in the assay on SF-295, in the assay on SF-539, in the assay with SK-OV-3, with SN12C, in the assay on SW-620 and in the assay with TK-10 was > 100 µM (inactive) throughout.
For the compound `COc1cccc(/C(C=O)=C(\Cl)c2ccc(OC)c(OC)c2)c1`, the GI50 in the assay with ACHN is 13.6 µM (inactive); in the assay with COLO 205, 14.5 µM (inactive); with HCT-15, 12.9 µM; with HL-60 it was 3.97 µM (inactive); in the assay on KM12, 15.7 µM (inactive); in the assay on LOX IMVI, 15 µM (inactive). The GI50 in the assay with M14 is 17.6 µM (inactive); in the assay on Malme-3M, 15.6 µM (inactive); in the assay with NCI-H522, 10.3 µM (inactive); with OVCAR-3 it was 16.6 µM (inactive); in the assay on OVCAR-8 it was 13.8 µM (inactive); in the assay with RXF 393, 12.3 µM (inactive). The GI50 with SF-295 was 15.2 µM (inactive); in the assay on SF-539 it was 16.6 µM (inactive); in the assay with SK-OV-3 it was 26.1 µM (inactive); in the assay on SN12C it was 14.7 µM (inactive); in the assay on SW-620, 15.9 µM (inactive); in the assay on TK-10 it was 28.1 µM (inactive).
Consider `CN(C)c1ccc(C(=C2C=CC(=[N+](C)C)C=C2)c2ccc(N(C)C)cc2)cc1` [GENTIAN VIOLET], for which the GI50 is 0.175 µM (active) with ACHN; 0.189 µM (active) in the assay on COLO 205; 0.334 µM in the assay on HCT-15; 0.04 µM (active) with HL-60; 0.0942 µM (active) in the assay on KM12; 0.0379 µM (active) in the assay on LOX IMVI. Besides, the GI50 with M14 is 0.163 µM (active); in the assay with Malme-3M, 0.245 µM (active); in the assay on NCI-H522, 0.298 µM (active); in the assay with RXF 393 it was 0.201 µM (active); in the assay on SF-295 it was 0.0402 µM (active); in the assay on SF-539 it was 0.258 µM (active). The GI50 was 0.224 µM (active) in the assay with SK-OV-3 and 0.21 µM (active) in the assay on SN12C.
